According to PMC9583304 (ACS Omega, 2022):

Target: T1, porcine pancreatic lipase (Sus scrofa, UniProt P00591)
T1 sequence (P00591 1-450): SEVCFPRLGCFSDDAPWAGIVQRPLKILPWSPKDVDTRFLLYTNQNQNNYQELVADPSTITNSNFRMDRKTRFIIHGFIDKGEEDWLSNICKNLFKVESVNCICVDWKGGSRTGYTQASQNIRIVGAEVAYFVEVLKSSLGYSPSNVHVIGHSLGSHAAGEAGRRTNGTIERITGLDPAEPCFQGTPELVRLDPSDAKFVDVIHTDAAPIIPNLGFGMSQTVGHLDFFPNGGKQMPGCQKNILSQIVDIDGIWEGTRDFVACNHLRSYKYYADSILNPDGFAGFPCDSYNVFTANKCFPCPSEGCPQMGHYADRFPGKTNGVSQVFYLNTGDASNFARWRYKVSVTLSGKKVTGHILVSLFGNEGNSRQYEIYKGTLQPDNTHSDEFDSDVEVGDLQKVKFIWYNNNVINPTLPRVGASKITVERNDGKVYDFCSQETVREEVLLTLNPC
Assay: Pancreatic lipase assay
Type: biochemical

- IC50: 11.2 µM
Compound: O=C(O[C@@H]1C=C[C@@H](OC(=O)c2ccccc2)[C@](O)(CO)[C@H]1O)c1ccccc1 (relative stereo) [Compound 1, (1R*,4R*,5S*,6S*)-5,6-dihydroxy-5-(hydroxymethyl)cyclohex-2-ene-1,4-diyl dibenzoate]
